Measured values reported in patent US20260198493A1, “HYDRAZIDE COMPOUND AND AGRICULTURAL/HORTICULTURAL FUNGICIDE” (Nippon Soda Co., Ltd., priority 2022, published 2026).

Tests used:
Botrytis cinerea [1] = assay: Control test of cucumber gray mold (sprayed young cucumber seedlings); assay type: in vivo; conditions: 96 h, four days after inoculation; for pest or weed control at 25 ppm: 25 ppm by mass spray; for pest or weed control at 125 ppm: 125 ppm by mass spray
Procedure: Then, the drug liquid was sprayed onto young cucumber seedlings cultivated in a nursery pot (variety “Jihai”-based, cotyledon stage), and then air-dried. […] They were left still in a moist room at 20° C. Four days after inoculation, leaves of the young cucumber seedlings were visually observed, and the control value was calculated from the lesion area ratio in accordance with the following equation. [formula]

Botrytis cinerea [2] = assay type: cell-based; conditions: 120 h, 25 ppm by volume, Vogel medium, 20° C., five days, dark, read-out: growth inhibition ratio
Glomerella cingulata = assay: Fungicidal effect test against fungi causing grape ripe rot disease; conditions: Colletotrichum gloeosporioides, 72 h, read-out: growth inhibition ratio
Fusarium graminearum = assay: microbe, parasite or virus in culture; assay type: cell-based; conditions: 96 h, read-out: growth inhibition ratio
Colletotrichum acutatum = assay: Fungicidal effect test against fungi causing apple anthracnose; conditions: 96 h, read-out: growth inhibition ratio
[3] = tested on: Erysiphe graminis f.sp.tritici; assay: Control test of wheat powdery mildew disease (sprayed young wheat seedlings); assay type: in vivo; conditions: Blumeria graminis, 144 h, 125 ppm by mass spray, six days after inoculation
Venturia inaequalis = assay: Control test of apple scab disease (sprayed young apple seedlings); assay type: in vivo; conditions: 125 ppm by mass spray, 12 to 14 days after inoculation

Cc1ccc(CN(C=O)NC(=O)c2cc(C)nnc2Oc2cccc(C3CC3)c2F)c(C)c1 [b-3, 3-(3-cyclopropyl-2-fluorophenoxy)-N′-(2,4-dimethylbenzyl)-N′-formyl-6-methylpyridazine-4-carbohydrazide]
≥ 75%: pest or weed control at 25 ppm (Botrytis cinerea [1]) | pest or weed control at 125 ppm (Botrytis cinerea [1]) | inhibition of growth at 25 ppm (Botrytis cinerea [2]) | inhibition of growth at 25 ppm (Glomerella cingulata) | inhibition of growth at 25 ppm (Fusarium graminearum) | inhibition of growth at 25 ppm (Colletotrichum acutatum) | pest or weed control at 125 ppm [3]

COC(=O)N(Cc1ccc(C)cc1C)NC(=O)c1cc(C)nnc1Oc1cccc(C2CC2)c1F [b-6, Methyl 2-(3-(3-cyclopropyl-2-fluorophenoxy)-6-methylpyridazine-4-carbonyl)-1-(2,4-dimethylbenzyl)hydrazine-1-carboxylate]
≥ 75%: pest or weed control at 25 ppm (Botrytis cinerea [1]) | pest or weed control at 125 ppm (Botrytis cinerea [1]) | inhibition of growth at 25 ppm (Fusarium graminearum) | pest or weed control at 125 ppm [3] | pest or weed control at 125 ppm (Venturia inaequalis)

Cc1ccc(CN(C=O)NC(=O)c2cc(C)ncc2Oc2cccc(C3CC3)c2F)c(C)c1 [b-14]
≥ 75%: pest or weed control at 25 ppm (Botrytis cinerea [1]) | pest or weed control at 125 ppm (Botrytis cinerea [1]) | inhibition of growth at 25 ppm (Botrytis cinerea [2]) | inhibition of growth at 25 ppm (Glomerella cingulata) | inhibition of growth at 25 ppm (Fusarium graminearum) | inhibition of growth at 25 ppm (Colletotrichum acutatum) | pest or weed control at 125 ppm [3]

CCc1cc(C(=O)NN(Cc2ccc(C)cc2C)C(=O)OC)c(Oc2cccc(C3CC3)c2F)nn1 [b-27]
≥ 75%: pest or weed control at 25 ppm (Botrytis cinerea [1]) | pest or weed control at 125 ppm (Botrytis cinerea [1]) | inhibition of growth at 25 ppm (Botrytis cinerea [2]) | inhibition of growth at 25 ppm (Glomerella cingulata) | inhibition of growth at 25 ppm (Fusarium graminearum) | inhibition of growth at 25 ppm (Colletotrichum acutatum)

COC(=O)N(Cc1ccc(C)cc1C)NC(=O)c1cc(C)ncc1Oc1cccc(C2CC2)c1 [b-32]
≥ 75%: pest or weed control at 25 ppm (Botrytis cinerea [1]) | inhibition of growth at 25 ppm (Botrytis cinerea [2]) | inhibition of growth at 25 ppm (Glomerella cingulata) | inhibition of growth at 25 ppm (Fusarium graminearum) | inhibition of growth at 25 ppm (Colletotrichum acutatum)

COC(=O)N(Cc1ccc(C)cc1C)NC(=O)c1cc(C)nnc1Oc1cccc(C#N)c1 [b-37]
≥ 75%: pest or weed control at 125 ppm (Botrytis cinerea [1]) | inhibition of growth at 25 ppm (Botrytis cinerea [2]) | inhibition of growth at 25 ppm (Glomerella cingulata) | inhibition of growth at 25 ppm (Fusarium graminearum) | inhibition of growth at 25 ppm (Colletotrichum acutatum) | pest or weed control at 125 ppm [3]

COC(=O)N(Cc1ccc(C)cc1C)NC(=O)c1cc(C2CC2)ncc1Oc1cccc(C2CC2)c1F [b-116]
≥ 75%: pest or weed control at 25 ppm (Botrytis cinerea [1]) | inhibition of growth at 25 ppm (Botrytis cinerea [2]) | inhibition of growth at 25 ppm (Glomerella cingulata) | inhibition of growth at 25 ppm (Fusarium graminearum) | inhibition of growth at 25 ppm (Colletotrichum acutatum)

COC(=O)N(Cc1ccc(C)cc1C)NC(=O)c1cc(C#N)ncc1Oc1cccc(C2CC2)c1F [b-119]
≥ 75%: pest or weed control at 25 ppm (Botrytis cinerea [1]) | inhibition of growth at 25 ppm (Botrytis cinerea [2]) | inhibition of growth at 25 ppm (Glomerella cingulata) | inhibition of growth at 25 ppm (Fusarium graminearum) | inhibition of growth at 25 ppm (Colletotrichum acutatum)

COC(=O)N(Cc1ccc(N(C)C)cc1C)NC(=O)c1cc(C)ncc1Oc1cccc(C2CC2)c1F [b-126]
≥ 75%: pest or weed control at 125 ppm (Botrytis cinerea [1]) | inhibition of growth at 25 ppm (Botrytis cinerea [2]) | inhibition of growth at 25 ppm (Glomerella cingulata) | inhibition of growth at 25 ppm (Fusarium graminearum) | inhibition of growth at 25 ppm (Colletotrichum acutatum)

COC(=O)N(Cc1ccc(C)cc1C)NC(=O)c1cc(C)nnc1Oc1cccc([N+](=O)[O-])c1 [b-135]
≥ 75%: pest or weed control at 25 ppm (Botrytis cinerea [1]) | inhibition of growth at 25 ppm (Botrytis cinerea [2]) | inhibition of growth at 25 ppm (Glomerella cingulata) | inhibition of growth at 25 ppm (Fusarium graminearum) | inhibition of growth at 25 ppm (Colletotrichum acutatum)

C#Cc1cccc(Oc2nnc(C)cc2C(=O)NN(Cc2ccc(C)cc2C)C(=O)OC)c1 [b-138]
≥ 75%: pest or weed control at 25 ppm (Botrytis cinerea [1]) | pest or weed control at 125 ppm (Botrytis cinerea [1]) | inhibition of growth at 25 ppm (Botrytis cinerea [2]) | inhibition of growth at 25 ppm (Glomerella cingulata) | inhibition of growth at 25 ppm (Fusarium graminearum) | inhibition of growth at 25 ppm (Colletotrichum acutatum) | pest or weed control at 125 ppm (Venturia inaequalis)

COC(=O)N(Cc1ccc(C)cc1C)NC(=O)c1ccncc1Oc1ccccc1 [b-188]
≥ 75%: pest or weed control at 25 ppm (Botrytis cinerea [1]) | pest or weed control at 125 ppm (Botrytis cinerea [1]) | inhibition of growth at 25 ppm (Botrytis cinerea [2]) | inhibition of growth at 25 ppm (Glomerella cingulata) | inhibition of growth at 25 ppm (Fusarium graminearum) | inhibition of growth at 25 ppm (Colletotrichum acutatum) | pest or weed control at 125 ppm [3]

COC(=O)N(Cc1ccc(C)cc1C)NC(=O)c1cc(SC)ncc1Oc1cccc(C2CC2)c1F [b-194]
≥ 75%: inhibition of growth at 25 ppm (Botrytis cinerea [2]) | inhibition of growth at 25 ppm (Glomerella cingulata) | inhibition of growth at 25 ppm (Fusarium graminearum) | inhibition of growth at 25 ppm (Colletotrichum acutatum)

COC(=O)N(Cc1ccc(C)cc1C)NC(=O)c1c(F)cncc1Oc1cccc(Cl)c1F [b-200]
≥ 75%: pest or weed control at 25 ppm (Botrytis cinerea [1]) | pest or weed control at 125 ppm (Botrytis cinerea [1]) | inhibition of growth at 25 ppm (Botrytis cinerea [2]) | inhibition of growth at 25 ppm (Glomerella cingulata) | inhibition of growth at 25 ppm (Fusarium graminearum) | inhibition of growth at 25 ppm (Colletotrichum acutatum) | pest or weed control at 125 ppm [3]

COC(=O)N(Cc1ccc(OC)cc1C)NC(=O)c1c(Cl)cncc1Oc1cccc(Cl)c1F [b-207]
≥ 75%: pest or weed control at 25 ppm (Botrytis cinerea [1]) | pest or weed control at 125 ppm (Botrytis cinerea [1]) | inhibition of growth at 25 ppm (Botrytis cinerea [2]) | inhibition of growth at 25 ppm (Glomerella cingulata) | inhibition of growth at 25 ppm (Fusarium graminearum) | inhibition of growth at 25 ppm (Colletotrichum acutatum) | pest or weed control at 125 ppm [3]

COC(=O)N(Cc1ccc(C)cc1C)NC(=O)c1c(Oc2cccc(C3CC3)c2F)cnc2c1OC(C)(C)CC2 [b-209, Methyl 2-(7-(3-cyclopropyl-2-fluorophenoxy)-2,2-dimethyl-3,4-dihydro-2H-pyrano[3,2-b]pyridine-8-carbonyl)-1-(2,4-dimethylbenzyl)hydrazine-1-carboxylate]
≥ 75%: pest or weed control at 25 ppm (Botrytis cinerea [1]) | pest or weed control at 125 ppm (Botrytis cinerea [1]) | inhibition of growth at 25 ppm (Botrytis cinerea [2]) | inhibition of growth at 25 ppm (Glomerella cingulata) | inhibition of growth at 25 ppm (Fusarium graminearum) | inhibition of growth at 25 ppm (Colletotrichum acutatum)

C=Cc1cncc(Oc2cccc(C3CC3)c2F)c1C(=O)NN(Cc1ccc(C)cc1C)C(=O)OC [b-211]
≥ 75%: pest or weed control at 25 ppm (Botrytis cinerea [1]) | pest or weed control at 125 ppm (Botrytis cinerea [1]) | inhibition of growth at 25 ppm (Botrytis cinerea [2]) | inhibition of growth at 25 ppm (Glomerella cingulata) | inhibition of growth at 25 ppm (Fusarium graminearum) | inhibition of growth at 25 ppm (Colletotrichum acutatum) | pest or weed control at 125 ppm [3]

COC(=O)N(Cc1ccc(C)cc1C)NC(=O)c1c(Oc2cccc(C3CC3)c2F)cnc2c1OC(C)(C)C=C2 [b-213, Methyl 2-(7-(3-cyclopropyl-2-fluorophenoxy)-2,2-dimethyl-2H-pyrano[3,2-b]pyridine-8-carbonyl)-1-(2,4-dimethylbenzyl)hydrazine-1-carboxylate]
≥ 75%: pest or weed control at 25 ppm (Botrytis cinerea [1]) | pest or weed control at 125 ppm (Botrytis cinerea [1]) | inhibition of growth at 25 ppm (Botrytis cinerea [2]) | inhibition of growth at 25 ppm (Glomerella cingulata) | inhibition of growth at 25 ppm (Fusarium graminearum) | inhibition of growth at 25 ppm (Colletotrichum acutatum) | pest or weed control at 125 ppm [3]

CO/N=C/c1cncc(Oc2cccc(C3CC3)c2F)c1C(=O)NN(Cc1ccc(C)cc1C)C(=O)OC [b-214]
≥ 75%: pest or weed control at 125 ppm (Botrytis cinerea [1]) | inhibition of growth at 25 ppm (Botrytis cinerea [2]) | inhibition of growth at 25 ppm (Glomerella cingulata) | inhibition of growth at 25 ppm (Fusarium graminearum) | inhibition of growth at 25 ppm (Colletotrichum acutatum)

COC(=O)N(Cc1ccc(C)cc1C)NC(=O)c1cc(C)nnc1Oc1cccc(Cl)n1 [b-215]
≥ 75%: inhibition of growth at 25 ppm (Botrytis cinerea [2]) | inhibition of growth at 25 ppm (Glomerella cingulata) | inhibition of growth at 25 ppm (Fusarium graminearum) | inhibition of growth at 25 ppm (Colletotrichum acutatum)

C=C(OCC)c1cncc(Oc2cccc(C3CC3)c2F)c1C(=O)NN(Cc1ccc(C)cc1C)C(=O)OC [b-217]
≥ 75%: inhibition of growth at 25 ppm (Botrytis cinerea [2]) | inhibition of growth at 25 ppm (Glomerella cingulata) | inhibition of growth at 25 ppm (Fusarium graminearum) | inhibition of growth at 25 ppm (Colletotrichum acutatum)
